Where “and” joins values, the source holds several entries; their conditions need not be identical. Equal entries are not always repeated.
What was measured:
Test in all cases: NCI one-dose screen
Assay type in all cases: cell-based, human
[1] = tested on: UACC-257; conditions: Melanoma UACC-257, 10 µM single dose
Method in brief: (§1)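 Compounds were tested at a single dose of 10 μM across the full NCI-60 cell line panel. Growth was expressed as percent growth relative to untreated control cells, reported as percent inhibition.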

[2] = tested on: KM12; conditions: Colon KM12, 10 µM single dose
Method in brief: (§2)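 Following the standard NCI-60 protocol, compounds were applied once at 10 μM to all 60 cancer lines. Read-out is percent growth versus untreated controls, expressed as inhibition %.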

[3] = tested on: M14; conditions: Melanoma M14, 10 µM single dose
Method in brief: (§3)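 At 10 μM, a single concentration, compounds were evaluated for antiproliferative effect in the NCI 60-line screen, with growth expressed relative to untreated control cells.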

[4] = tested on: HOP-92; conditions: NSCLC HOP-92, 10 µM single dose
Method in brief: as §3

[5] = tested on: HOP-62; conditions: NSCLC HOP-62, 10 µM single dose
Method in brief: as §1

[6] = tested on: RXF 393; conditions: Renal RXF 393, 10 µM single dose
Method in brief: as §3

[7] = tested on: OVCAR-3; conditions: Ovarian OVCAR-3, 10 µM single dose
Method in brief: as §3

[8] = tested on: A549/ATCC; conditions: NSCLC A549/ATCC, 10 µM single dose
Method in brief: as §3

[9] = tested on: MCF7; conditions: Breast MCF7, 10 µM single dose
Method in brief: as §2

[10] = tested on: SF-268; conditions: CNS SF-268, 10 µM single dose
Method in brief: as §2

[11] = tested on: HCC-2998; conditions: Colon HCC-2998, 10 µM single dose
Method in brief: as §3

[12] = tested on: NCI-H226; conditions: NSCLC NCI-H226, 10 µM single dose
Method in brief: (§4)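 Percent growth inhibition, referenced to untreated control cells, was determined after a single 10 μM compound exposure in the NCI 60-cell-line anticancer screen.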

[13] = tested on: RPMI-8226; conditions: Leukemia RPMI-8226, 10 µM single dose
Method in brief: as §3

[14] = tested on: MOLT-4; conditions: Leukemia MOLT-4, 10 µM single dose
Method in brief: as §2

[15] = tested on: NCI-H522; conditions: NSCLC NCI-H522, 10 µM single dose
Method in brief: as §4

[16] = tested on: SF-539; conditions: CNS SF-539, 10 µM single dose
Method in brief: as §2

[17] = tested on: EKVX; conditions: NSCLC EKVX, 10 µM single dose
Method in brief: as §4

[18] = tested on: TK-10; conditions: Renal TK-10, 10 µM single dose
Method in brief: as §3

[19] = tested on: 786-0; conditions: Renal 786-0, 10 µM single dose
Method in brief: as §3

[20] = tested on: SNB-19; conditions: CNS SNB-19, 10 µM single dose
Method in brief: as §1

[21] = tested on: UACC-62; conditions: Melanoma UACC-62, 10 µM single dose
Method in brief: as §3

[22] = tested on: CAKI-1; conditions: Renal CAKI-1, 10 µM single dose
Method in brief: as §3

[23] = tested on: SK-OV-3; conditions: Ovarian SK-OV-3, 10 µM single dose
Method in brief: as §3

[24] = tested on: COLO 205; conditions: Colon COLO 205, 10 µM single dose
Method in brief: as §3

[25] = tested on: DU-145; conditions: Prostate DU-145, 10 µM single dose
Method in brief: as §3

[26] = tested on: MALME-3M; conditions: Melanoma MALME-3M, 10 µM single dose
Method in brief: as §3

[27] = tested on: ACHN; conditions: Renal ACHN, 10 µM single dose
Method in brief: as §3

[28] = tested on: SF-295; conditions: CNS SF-295, 10 µM single dose
Method in brief: as §3

[29] = tested on: LOX IMVI; conditions: Melanoma LOX IMVI, 10 µM single dose
Method in brief: as §3

[30] = tested on: SK-MEL-2; conditions: Melanoma SK-MEL-2, 10 µM single dose
Method in brief: as §1

[31] = tested on: MDA-MB-231/ATCC; conditions: Breast MDA-MB-231/ATCC, 10 µM single dose
Method in brief: as §3

[32] = tested on: SR; conditions: Leukemia SR, 10 µM single dose
Method in brief: as §3

[33] = tested on: SW-620; conditions: Colon SW-620, 10 µM single dose
Method in brief: as §1

[34] = tested on: HCT-116; conditions: Colon HCT-116, 10 µM single dose
Method in brief: as §3

[35] = tested on: T-47D; conditions: Breast T-47D, 10 µM single dose
Method in brief: as §3

[36] = tested on: IGROV1; conditions: Ovarian IGROV1, 10 µM single dose
Method in brief: as §3

[37] = tested on: HS 578T; conditions: Breast HS 578T, 10 µM single dose
Method in brief: as §3

`Cc1c(C(=O)NCCCC(=O)NO)sc2ncnc(Nc3ccc(Cl)cc3)c12` [Compound 20c, 4–(4-chlorophenylamino)-N-(4-(hydroxyamino)-4-oxobutyl)-5-methylthieno[2,3-d]pyrimidine-6-carboxamide] was tested, and the “Growth Percent” value [1] was 112.8% and 112.86%, the “Growth Percent” value [2] was 101.7% and 101.78% and the “Growth Percent” value [3] was 107.6% and 107.62%. The “Growth Percent” value [4] was 111.8% and 111.83%, the “Growth Percent” value [5] was 102.5% and 102.52% and the “Growth Percent” value [6] was 109.5% and 109.55%. The “Growth Percent” value [7] was 106.5% and 106.57%, the “Growth Percent” value [8] was 104.4% and 104.46% and the “Growth Percent” value [9] was 91.4% and 91.44%. For the same compound, the “Growth Percent” value [10] was 97.2% and 97.29%, the “Growth Percent” value [11] was 102.4% and 102.48% and the “Growth Percent” value [12] was 92.0% and 92.02%. For the same compound, the “Growth Percent” value [13] was 103.6% and 103.64%, the “Growth Percent” value [14] was 108.7% and 108.77% and the “Growth Percent” value [15] was 91.2% and 91.22%. For the same compound, the “Growth Percent” value [16] was 95.3% and 95.36%, the “Growth Percent” value [17] was 90.5% and 90.52% and the “Growth Percent” value [18] was 152.2% and 152.23%. The “Growth Percent” value [19] was 83.0% and 83.06%, the “Growth Percent” value [20] was 99.1% and 99.11% and the “Growth Percent” value [21] was 98.8% and 98.83%. The “Growth Percent” value [22] was 93.0% and 93.08%, the “Growth Percent” value [23] was 112.9% and 112.92% and the “Growth Percent” value [24] was 117.8% and 117.81%. The “Growth Percent” value [25] was 116.8% and 116.86%, the “Growth Percent” value [26] was 112.5% and 112.53% and the “Growth Percent” value [27] was 105.1% and 105.18%. For the same compound, the “Growth Percent” value [28] was 101.19%, the “Growth Percent” value [29] was 99.2% and 99.24% and the “Growth Percent” value [30] was 106.2% and 106.25%. For the same compound, the “Growth Percent” value [31] was 95.4% and 95.46%, the “Growth Percent” value [32] was 102.6% and 102.62% and the “Growth Percent” value [33] was 102.3% and 102.37%. The “Growth Percent” value [34] was 108.2% and 108.21%, the “Growth Percent” value [35] was 105.2% and 105.24% and the “Growth Percent” value [36] was 81.1% and 81.14%. The “Growth Percent” value [37] was 99.4% and 99.45%.

In the case of `Cc1c(C(=O)NCCC(=O)NO)sc2ncnc(Nc3ccc(Cl)cc3)c12` [Compound 19c, 4–(4-chlorophenylamino)-N-(3-(hydroxyamino)-3-oxopropyl)-5-methylthieno[2,3-d]pyrimidine-6-carboxamide], the “Growth Percent” value [1] is reported as 115.4%, the “Growth Percent” value [2] is reported as 102.0% and 102.09% and the “Growth Percent” value [3] is reported as 107.9% and 107.96%. For the same compound, the “Growth Percent” value [4] was 124.7% and 124.71%, the “Growth Percent” value [5] was 105.8% and 105.87% and the “Growth Percent” value [6] was 109.2% and 109.21%. For the same compound, the “Growth Percent” value [7] was 110.3% and 110.31%, the “Growth Percent” value [8] was 107.5% and 107.54% and the “Growth Percent” value [9] was 93.4%. The “Growth Percent” value [10] was 97.6% and 97.68%, the “Growth Percent” value [11] was 105.3% and 105.39% and the “Growth Percent” value [12] was 106.8% and 106.83%. For the same compound, the “Growth Percent” value [13] was 105.4% and 105.48%, the “Growth Percent” value [14] was 108.6% and 108.67% and the “Growth Percent” value [15] was 90.0% and 90.06%. For the same compound, the “Growth Percent” value [16] was 99.0%, the “Growth Percent” value [17] was 98.4% and 98.49% and the “Growth Percent” value [18] was 115.9% and 115.96%. The “Growth Percent” value [19] was 104.9% and 104.99%, the “Growth Percent” value [20] was 103.7% and 103.73% and the “Growth Percent” value [21] was 101.7% and 101.73%. The “Growth Percent” value [22] was 90.4% and 90.48%, the “Growth Percent” value [23] was 120.6% and 120.62% and the “Growth Percent” value [24] was 115.7% and 115.76%. For the same compound, the “Growth Percent” value [25] was 114.2%, the “Growth Percent” value [26] was 104.5% and 104.57% and the “Growth Percent” value [27] was 106.8% and 106.82%. For the same compound, the “Growth Percent” value [28] was 99.7% and 99.97%, the “Growth Percent” value [29] was 98.8% and 98.82% and the “Growth Percent” value [30] was 101.8% and 101.81%. The “Growth Percent” value [31] was 104.1% and 104.18%, the “Growth Percent” value [32] was 101.3% and 101.35% and the “Growth Percent” value [33] was 102.5% and 102.53%. The “Growth Percent” value [34] was 102.1% and 102.16%, the “Growth Percent” value [35] was 106.95% and the “Growth Percent” value [36] was 105.4% and 105.45%. For the same compound, the “Growth Percent” value [37] was 105.8% and 105.84%.

For `Cc1c(C(=O)NCCCC(=O)NO)sc2ncnc(Nc3ccc(NC(=O)Nc4ccccc4)cc3)c12` [Compound 12a, 1–(4-(6-((4-(hydroxyamino)-4-oxobutyl)carbamoyl)-5-methylthieno[2,3-d]pyrimidin-4-ylamino)phenyl)-3-phenylurea], the “Growth Percent” value [1] was 104.2% and 104.23%, the “Growth Percent” value [2] was 99.6% and 99.61% and the “Growth Percent” value [3] was 99.0% and 99.09%. The “Growth Percent” value [4] was 121.7% and 121.76%, the “Growth Percent” value [5] was 100.0% and 100.08% and the “Growth Percent” value [6] was 100.1% and 100.13%. The “Growth Percent” value [7] was 107.1% and 107.19%, the “Growth Percent” value [8] was 99.6% and 99.69% and the “Growth Percent” value [9] was 92.4% and 92.41%. The “Growth Percent” value [10] was 92.5% and 92.51%, the “Growth Percent” value [11] was 102.1% and 102.15% and the “Growth Percent” value [12] was 93.3% and 93.35%. The “Growth Percent” value [13] was 110.5% and 110.53%, the “Growth Percent” value [14] was 102.6% and 102.68% and the “Growth Percent” value [15] was 87.7% and 87.71%. For the same compound, the “Growth Percent” value [16] was 96.5% and 96.54%, the “Growth Percent” value [17] was 93.22% and the “Growth Percent” value [18] was 111.3% and 111.37%. The “Growth Percent” value [19] was 102.3% and 102.37%, the “Growth Percent” value [20] was 97.1% and 97.12% and the “Growth Percent” value [21] was 99.1% and 99.19%. The “Growth Percent” value [22] was 92.8% and 92.88%, the “Growth Percent” value [23] was 121.6% and 121.69% and the “Growth Percent” value [24] was 111.9% and 111.95%. For the same compound, the “Growth Percent” value [25] was 108.5% and 108.51%, the “Growth Percent” value [26] was 104.5% and 104.57% and the “Growth Percent” value [27] was 95.4% and 95.45%. For the same compound, the “Growth Percent” value [28] was 102.0% and 102.06%, the “Growth Percent” value [29] was 93.57% and the “Growth Percent” value [30] was 113.3% and 113.39%. For the same compound, the “Growth Percent” value [31] was 92.1% and 92.16%, the “Growth Percent” value [32] was 105.3% and 105.35% and the “Growth Percent” value [33] was 103.3% and 103.39%. The “Growth Percent” value [34] was 99.5%, the “Growth Percent” value [35] was 103.9% and 103.98% and the “Growth Percent” value [36] was 99.0% and 99.07%. The “Growth Percent” value [37] was 106.3% and 106.34%.

From publication PMC8253220, “Molecular design, synthesis and in vitro biological evaluation of thienopyrimidine–hydroxamic acids as chimeric kinase HDAC inhibitors: a challenging approach to combat cancer” (Journal of Enzyme Inhibition and Medicinal Chemistry, 2021)
